This passage reports EC50 results from patent US20250145596A1, “HETEROCYCLIC GLP-1 AGONISTS” (Gasherbrum Bio, Inc., priority 2022, published 2025).

T1 sequence (P43220 24-463): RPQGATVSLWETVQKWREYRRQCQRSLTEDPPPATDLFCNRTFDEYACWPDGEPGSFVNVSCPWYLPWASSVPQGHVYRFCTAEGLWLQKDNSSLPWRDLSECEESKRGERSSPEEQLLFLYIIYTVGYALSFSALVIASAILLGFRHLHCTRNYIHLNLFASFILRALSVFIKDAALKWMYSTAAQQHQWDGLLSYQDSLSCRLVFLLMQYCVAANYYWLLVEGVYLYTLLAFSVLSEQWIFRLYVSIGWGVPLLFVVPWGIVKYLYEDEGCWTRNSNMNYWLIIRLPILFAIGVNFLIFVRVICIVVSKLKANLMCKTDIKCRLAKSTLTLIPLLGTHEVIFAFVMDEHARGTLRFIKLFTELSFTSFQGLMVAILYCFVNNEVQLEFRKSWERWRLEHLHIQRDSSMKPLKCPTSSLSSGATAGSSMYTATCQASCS

The assay has as its target T1, GLP-1 Receptor (Homo sapiens, UniProt P43220).
T1 construct: host or cells: HEK293/CRE-Luc
Description: GLP-1R agonist cAMP stimulation assay. It is filed as cell-based. The settings on record: HEK293/CRE-Luc cell line stably expressing the GLP-1 Receptor; 30 min at 37° C.; cAMP dynamic 2 Kit. The method, then: Activation of GLP-1 receptor is known to stimulate cyclic AMP (cAMP) production in cells which indicates primary coupling to the Gas subunit of the G protein heterotrimeric complex.
To optimize functional activity directed toward Gas coupling, a HEK293/CRE-Luc cell line developed by HDB stably expressing the GLP-1 Receptor was used. 200× concentration of compound working solutions were prepared (Agilent Technologies Bravo) with ½ log serial dilution in 384-well Echo LDV plate (Labcyte, Cat #LP-0200). 50 nL/well 200× concentration of compound working solutions were moved to 384-well white low volume plate (Greiner, Cat #784075) using Labcyte ECHO550. 1×10^5 cells/mL HEK293/GLPlR/CRE-LUC (HD Biosciences) cell suspensions prepared with assay buffer [DPBS containing 0.5 mM IBMX (Sigma, Cat #15879) and 0.1% BSA (GENVIEW, Cat #FA016-100g)], 10 μL cell suspensions were added to each well of previous generated assay plate which already contains 50 nL compound at 200× concentration using ThermoFisher Multidrop Combi (1000 cells/well). Seal the plate and incubate at 37° C. with 5% CO2 for 30 min.
After incubation the cAMP assay signal was generated using cAMP dynamic 2 Kit (Cisbio). 5 μL cAMP-d2 working solution was added to each well, followed with 5 μL Anti-cAMP antibody-cryptate working solution added to each well using ThermoFisher Multidrop Combi. Incubate at room temperature for 1 hour protected from light. Read the fluorescence at 665 and 615 nm with Reader PerkinElmer EnVision.
% Activity=100%×(mean RLU of test sample mean RLU of vehicle control)/(mean RLU of MAX control−mean RLU of vehicle control))
`CC1(c2ccc(Cl)cc2F)Oc2cccc(C3=CCN(Cc4ncc(-c5nnc(C(F)(F)F)[nH]5)cc4CC4(C#N)CC4)CC3)c2O1` (stereo not shown) [Example 66, 1-((2-((4-(2-(4-chloro-2-fluorophenyl)-2-methylbenzo[d][1,3]dioxol-4-yl)-3,6-dihydropyridin-1(2H)-yl)methyl)-5-(5-(trifluoromethyl)-4H-1,2,4-triazol-3-yl)pyridin-3-yl)methyl)cyclopropane-1-carbonitrile] displayed an EC50 below 1 nM.
The same measure for `C[C@]1(c2ccc(Cl)cc2F)Oc2c(F)ccc(C3CCN(Cc4ncc(-c5nnc(C(F)(F)F)[nH]5)cc4CC4(C#N)CC4)CC3F)c2O1` (single isomer, unassigned) [Example 30]: below 1 nM; for `C[C@]1(c2ccc(Cl)cc2F)Oc2c(F)ccc(C3CCN(Cc4ncc(-c5nnc(C(F)(F)F)[nH]5)cc4CC4(C#N)CC4)CC3F)c2O1` (single isomer, unassigned) [Example 29]: below 1 nM; for `Cc1cc(-c2cnn(C)c2)cnc1CN1CCC(c2cccc(OCc3ccc(Cl)cc3F)n2)CC1` [Example 99]: above 100 nM.
To `CS(=O)(=O)Cc1cc(-c2nnc(C(F)(F)F)[nH]2)cnc1CN1CCC(c2ccc(F)c(OCc3ccc(Cl)cc3F)n2)CC1` [Example 61, 2-[(4-{6-[(4-chloro-2-fluorophenyl)methoxy]-5-fluoropyridin-2-yl}piperidin-1-yl)methyl]-3-(methanesulfonylmethyl)-5-[5-(trifluoromethyl)-4H-1,2,4-triazol-3-yl]pyridine] belongs below 1 nM; to `CC1(c2ccc(Cl)cc2F)Oc2c(F)ccc(C3CCN(Cc4ncc(-c5nnc(C(F)(F)F)[nH]5)cc4CC4(C#N)CC4)CC3)c2O1` (stereo not shown) [Example 12, 1-{[2-({4-[2-(4-chloro-2-fluorophenyl)-7-fluoro-2-methyl-2H-1,3-benzodioxol-4-yl]piperidin-1-yl}methyl)-5-[5-(trifluoromethyl)-4H-1,2,4-triazol-3-yl]pyridin-3-yl]methyl}cyclopropane-1-carbonitrile], below 1 nM.
The same measure for `Cc1cc(-c2noc(=O)[nH]2)nnc1CN1CCC(c2cccc3c2O[C@@](C)(c2ccc(Cl)cc2F)O3)CC1` [Example 51, (S)-3-(6-((4-(2-(4-chloro-2-fluorophenyl)-2-methylbenzo[d][1,3]dioxol-4-yl)piperidin-1-yl)methyl)-5-methylpyridazin-3-yl)-1,2,4-oxadiazol-5(4H)-one]: 1 to 100 nM.
For `CS(=O)(=O)Cc1cc(-c2nnc(C(F)(F)F)[nH]2)cnc1CN1CCC(Oc2cccc(Cc3ccc(Cl)cc3F)n2)CC1` [Example 87], the EC50 was in the range of 1 to 100 nM.
The compound `N#CC1(Cc2cc(-c3nnc(C(F)(F)F)[nH]3)cnc2CN2CCN(c3ccc(F)c(OCc4ccc(Cl)cc4F)c3)CC2)CC1` [Example 41, 1-({2-[(4-{3-[(4-chloro-2-fluorophenyl)methoxy]-4-fluorophenyl}piperazin-1-yl)methyl]-5-[5-(trifluoromethyl)-4H-1,2,4-triazol-3-yl]pyridin-3-yl}methyl)cyclopropane-1-carbonitrile] returned an EC50 below 1 nM.
In turn, `COC1(Cc2cc(-c3nnc(C(F)(F)F)[nH]3)cnc2CN2CCC(c3cccc4c3O[C@@](C)(c3ccc(Cl)cc3F)O4)CC2)CC1` [Example 53, 2-({4-[(2S)-2-(4-chloro-2-fluorophenyl)-2-methyl-2H-1,3-benzodioxol-4-yl]piperidin-1-yl}methyl)-3-[(1-methoxycyclopropyl)methyl]-5-[5-(trifluoromethyl)-4H-1,2,4-triazol-3-yl]pyridine] returned an EC50 of 1 to 100 nM.
To `CC1(c2ccc(C(F)(F)F)cc2F)Oc2cccc(C3CCN(Cc4ncc(-c5nnc(C(F)(F)F)[nH]5)cc4CC4(C#N)CC4)CC3)c2O1` (stereo not shown) [Example 8, 1-((2-((4-(2-(2-fluoro-4-(trifluoromethyl)phenyl)-2-methylbenzo[d][1,3]dioxol-4-yl)piperidin-1-yl)methyl)-5-(5-(trifluoromethyl)-4H-1,2,4-triazol-3-yl)pyridin-3-yl)methyl)cyclopropane-1-carbonitrile] belongs below 1 nM; to `CN(C)C(=O)Cc1cc(-c2nnc(C(F)(F)F)[nH]2)cnc1CN1CCC(c2cccc3c2O[C@@](C)(c2ccc(Cl)cc2F)O3)CC1` [Example 56, (S)-2-(2-((4-(2-(4-chloro-2-fluorophenyl)-2-methylbenzo[d][1,3]dioxol-4-yl)piperidin-1-yl)methyl)-5-(5-(trifluoromethyl)-4H-1,2,4-triazol-3-yl)pyridin-3-yl)-N,N-dimethylacetamide], 1 to 100 nM.
The same measure for `C[C@]1(c2ccc(Cl)cc2F)Oc2cccc(C3CCN(Cc4ncc(-c5nnc(C(F)(F)F)[nH]5)cc4CC4CCOC4)CC3)c2O1` (stereo partly shown) [Example 79]: 1 to 100 nM; for `COCCc1cc(-c2nnc(C(F)(F)F)[nH]2)cnc1CN1CCC(c2cccc3c2O[C@@](C)(c2ccc(Cl)cn2)O3)CC1` [Example 89]: 1 to 100 nM; for `C[C@]1(c2ccc(Cl)cc2F)Oc2cccc(C3CCN(Cc4ncc(-c5nnc(C#N)[nH]5)cc4CC4(C#N)CC4)CC3)c2O1` [Example 18, (S)-5-(6-((4-(2-(4-chloro-2-fluorophenyl)-2-methylbenzo[d][1,3]dioxol-4-yl)piperidin-1-yl)methyl)-5-((1-cyanocyclopropyl)methyl)pyridin-3-yl)-4H-1,2,4-triazole-3-carbonitrile]: below 1 nM.
The same measure for `C[C@]1(c2ccc(Cl)cc2F)Oc2cccc(C3CCN(Cc4ncc(-c5nnn[nH]5)cc4CC4(C#N)CC4)CC3)c2O1` [Example 71]: below 1 nM.
Compound `Cc1cc(-c2nnc(C(F)(F)F)[nH]2)nnc1CN1CCC(c2cccc3c2O[C@@](C)(c2ccc(Cl)cc2F)O3)CC1` [Example 49, (S)-3-((4-(2-(4-chloro-2-fluorophenyl)-2-methylbenzo[d][1,3]dioxol-4-yl)piperidin-1-yl)methyl)-4-methyl-6-(5-(trifluoromethyl)-4H-1,2,4-triazol-3-yl)pyridazine] had a concentration giving a half-maximal response (EC50) of 1 to 100 nM.
The same measure for `Cc1cc(-c2nnn[nH]2)nnc1CN1CCC(c2cccc3c2O[C@@](C)(c2ccc(Cl)cc2F)O3)CC1` [Example 50, 3-({4-[(2S)-2-(4-chloro-2-fluorophenyl)-2-methyl-1,3-benzodioxol-4-yl]piperidin-1-yl}methyl)-4-methyl-6-(1H-1,2,3,4-tetrazol-5-yl)pyridazine]: 1 to 100 nM.
The same measure for `N#CC1(Cc2cc(-c3nnc(C(F)(F)F)[nH]3)cnc2CN2CCC(c3ccnc(OCc4ccc(Cl)cc4F)n3)CC2)CC1` [Example 34, 1-({2-[(4-{2-[(4-chloro-2-fluorophenyl)methoxy]pyrimidin-4-yl}piperidin-1-yl)methyl]-5-[5-(trifluoromethyl)-4H-1,2,4-triazol-3-yl]pyridin-3-yl}methyl)cyclopropane-1-carbonitrile]: below 1 nM; for `CC1(c2ccccc2F)Oc2ccc(F)c(C3CCN(Cc4ncc(-c5nnc(C(F)(F)F)[nH]5)cc4CC4(C#N)CC4)CC3)c2O1` (stereo not shown) [Example 80]: 1 to 100 nM.
Consider `CC1(c2ccc(C(F)(F)F)cc2Cl)Oc2cccc(C3CCN(Cc4ncc(-c5nnc(C(F)(F)F)[nH]5)cc4CC4(C#N)CC4)CC3)c2O1` (stereo not shown) [Example 9, 1-((2-((4-(2-(2-Chloro-4-(trifluoromethyl)phenyl)-2-methylbenzo[d][1,3]dioxol-4-yl)piperidin-1-yl)methyl)-5-(5-(trifluoromethyl)-4H-1,2,4-triazol-3-yl)pyridin-3-yl)methyl)cyclopropane-1-carbonitrile], for which the EC50 was below 1 nM.
To `CCS(=O)(=O)Cc1cc(-c2nnc(C(F)(F)F)[nH]2)cnc1CN1CCC(c2cccc3c2O[C@@](C)(c2ccc(Cl)cc2F)O3)CC1` [Example 59, 2-({4-[(2S)-2-(4-chloro-2-fluorophenyl)-2-methyl-2H-1,3-benzodioxol-4-yl]piperidin-1-yl}methyl)-3-[(ethanesulfonyl)methyl]-5-[5-(trifluoromethyl)-4H-1,2,4-triazol-3-yl]pyridine] belongs below 1 nM; to `N#CC1(Cc2cc(-c3nnc(C(F)(F)F)[nH]3)cnc2CN2CCN(c3ncc(F)c(OCc4ccc(Cl)cc4F)n3)CC2)CC1` [Example 45, 1-((2-((4-(4-((4-chloro-2-fluorobenzyl)oxy)-5-fluoropyrimidin-2-yl)piperazin-1-yl)methyl)-5-(5-(trifluoromethyl)-4H-1,2,4-triazol-3-yl)pyridin-3-yl)methyl)cyclopropane-1-carbonitrile], 1 to 100 nM.
The compound `CC1(c2ccc(Cl)cc2F)Oc2ccc(F)c(C3CCN(Cc4ncc(-c5nnc(C(F)(F)F)[nH]5)cc4CC4(C#N)CC4)CC3)c2O1` (stereo not shown) [Example 15, 1-{[2-({4-[2-(4-Chloro-2-fluorophenyl)-5-fluoro-2-methyl-2H-1,3-benzodioxol-4-yl]piperidin-1-yl}methyl)-5-[5-(trifluoromethyl)-4H-1,2,4-triazol-3-yl]pyridin-3-yl]methyl}cyclopropane-1-carbonitrile] showed an EC50 below 1 nM.
Take `C[C@]1(c2ccc(Cl)cc2F)Oc2cccc(C3CCN(Cc4ncc(-c5nnc(C(F)(F)F)[nH]5)cc4CC4(C#N)CC4)CC3F)c2O1` (single isomer, unassigned) [Example 28]: the EC50 is below 1 nM.
